Measured values: patent publication US7935815B2, “Imidazoyl pyridine compounds and salts thereof” (Eisai R&D Management Co., Ltd., priority 2007, dated 2011)

Test system: Aβ42 production
Test: Quantification of Aβ peptide in culture of neurons from rat fetus brain (Aβ ELISA)
Format: cell-based
Settings: Rattus norvegicus, Neuron, 72 h, rat primary neuronal culture (embryonic day 18 Wistar rat cerebral cortex); cultured three days after addition of compound; Aβx-42 ELISA of the medium; read-out: Aβ42 production reducing effect IC50
Method: Quantification of Aβ Peptide in Culture of Neurons from Rat Fetus Brain
(1) Rat Primary Neuronal Culture
Primary neuronal cultures were prepared from the cerebral cortex of embryonic day 18 Wistar rats (Charles River Japan, Yokohama, Japan). Specifically, the embryos were aseptically removed from pregnant rats under ether anesthesia. The brain was isolated from the embryo and immersed in an ice-cold L-15 medium (Invitrogen Corp. Cat #11415-064, Carlsbad, Calif., USA, or SIGMA L1518, for example). The cerebral cortex was collected from the isolated brain under a stereoscopic microscope. The cerebral cortex fragments collected were enzymatically treated in an enzyme solution containing 0.25% trypsin (Invitrogen Corp. Cat #15050-065, Carlsbad, Calif., USA) and 0.01% DNase (Sigma D5025, St. Louis, Mo., USA) at 37° C. for 30 minutes to disperse the cells. Here, the enzymatic reaction was stopped by adding inactivated horse serum to the solution. The enzymatically treated solution was centrifuged at 1,500 rpm for five minutes to remove the supernatant. 5 to 10 ml of a medium was added to the resulting cell mass. Neurobasal medium (Invitrogen Corp. Cat #21103-049, Carlsbad, Calif., USA) supplemented with 2% B27 supplement (Invitrogen Corp. Cat #17504-044, Carlsbad, Calif., USA), 25 μM 2-mercaptoethanol (2-ME, WAKO Cat #139-06861, Osaka, Japan), 0.5 mM L-glutamine (Invitrogen Corp. Cat #25030-081, Carlsbad, Calif., USA), and Antibiotics-Antimycotics (Invitrogen Corp. Cat #15240-062, Carlsbad, Calif., USA) was used as the medium (Neurobasal/B27/2-ME). However, the above Neurobasal medium not supplemented with 2-ME (Neurobasal/B27) was used for the assay. The cells were redispersed by mild pipetting of the cell mass to which the medium was added. The cell dispersion was filtered through a 40-μm nylon mesh (Cell Strainer, Cat #35-2340, Becton Dickinson Labware, Franklin Lakes, N.J., USA) to remove the remaining cell mass, and thus a neuronal cell suspension was obtained. The neuronal cell suspension was diluted with the medium and then plated in a volume of 100 μl/well at an initial cell density of 5×10^5 cells/cm^2 in a 96-well polystyrene culture plate pre-coated with poly-L or D-lysine (Falcon Cat #35-3075, Becton Dickinson Labware, Franklin Lakes, N.J., USA coated with poly-L-lysine using the method shown below, or BIOCOAT™ cell environments Poly-D-lysine cell ware 96-well plate, Cat #35-6461, Becton Dickinson Labware, Franklin Lakes, N.J., USA). Poly-L-lysine coating was carried out as follows. 100 μg/ml of a poly-L-lysine (SIGMA P2636, St. Louis, Mo., USA) solution was aseptically prepared with a 0.15 M borate buffer (pH 8.5). 100 μl/well of the solution was added to the 96-well polystyrene culture plate and incubated at room temperature for one or more hours or at 4° C. overnight or longer. The coated 96-well polystyrene culture plate was washed with sterile water four or more times, and then dried or rinsed with, for example, sterile PBS or medium, and used for cell plating. The plated cells were cultured in the culture plate at 37° C. in 5% CO2-95% air for one day. Then, the total amount of the medium was replaced with a fresh Neurobasal™/B27/2-ME medium, and then the cells were cultured for further three days.
The drug was added to the culture plate on Day 4 of culture as follows. The total amount of the medium was removed from the wells, and 180 μl/well of Neurobasal medium not containing 2-ME and containing 2% B-27 (Neurobasal/B27) was added thereto. A solution of the test compound in dimethyl sulfoxide (hereinafter abbreviated as DMSO) was diluted with Neurobasal/B27 at 10-fold of the final concentration. 20 μl/well of the dilution was added to and sufficiently mixed with the medium. The final DMSO concentration was 1% or less. Only DMSO was added to the control group.
The cells were cultured for three days after addition of the compound, and the total amount of the medium was collected. […]

Structure (SMILES) | IC50
COc1nc(/C=C/c2nc3n(n2)CCC[C@H]3c2cccc(C)c2F)ccc1-n1cnc(C)c1 (single isomer, unassigned) [Example 282, (−)-8-(2-fluoro-3-methylphenyl)-2-{(E)-2-[6-methoxy-5-(4-methyl-1H-imidazol-1-yl)pyridin-2-yl]vinyl}-5,6,7,8-tetrahydro-[1,2,4]triazolo[1,5-a]pyridine] | 29 nM
COc1cc(/C=C/c2nc3n(n2)CCCC3(O)c2cc(F)cc(F)c2)ccc1-n1cnc(C)c1 (single isomer, unassigned; (+)) [Example 80, (+)-8-(3,5-difluorophenyl)-2-{(E)-2-[3-methoxy-4-(4-methyl-1H-imidazol-1-yl)phenyl]vinyl}-5,6,7,8-tetrahydro[1,2,4]triazolo[1,5-a]pyridin-8-ol] | 29 nM
COc1cc(/C=C/c2nc3n(n2)CCCC3c2cccc(F)c2)ccc1-n1cnc(C)c1 (single isomer, unassigned; (-)) [Example 2, (−)-8-(3-fluorophenyl)-2-{(E)-2-[3-methoxy-4-(4-methyl-1H-imidazol-1-yl)phenyl]vinyl}-5,6,7,8-tetrahydro[1,2,4]triazolo[1,5-a]pyridine] | 28 nM
CCCCC(=O)c1ccc(C2CCCn3nc(/C=C/c4ccc(-n5cnc(C)c5)c(OC)c4)nc32)cc1 (single isomer, unassigned; (-)) [Example 3, (−)-1-{4-{2-{(E)-2-[3-methoxy-4-(4-methyl-1H-imidazol-1-yl)phenyl]vinyl}-5,6,7,8-tetrahydro[1,2,4]triazolo[1,5-a]pyridin-8-yl}phenyl}pentan-1-one] | 48 nM
COc1cc(/C=C/c2nc3n(n2)CCCC3c2ccc(C(C)C)cc2)ccc1-n1cnc(C)c1 (single isomer, unassigned; (-)) [Example 5, (−)-8-(4-isopropylphenyl)-2-{(E)-2-[3-methoxy-4-(4-methyl-1H-imidazol-1-yl)phenyl]vinyl}-5,6,7,8-tetrahydro[1,2,4]triazolo[1,5-a]pyridine] | 21 nM
COc1cc(/C=C/c2nc3n(n2)CCCC3c2ccc(SC)cc2)ccc1-n1cnc(C)c1 (single isomer, unassigned; (-)) [Example 7, (−)-2-{(E)-2-[3-methoxy-4-(4-methyl-1H-imidazol-1-yl)phenyl]vinyl}-8-(4-methylsulfanylphenyl)-5,6,7,8-tetrahydro-[1,2,4]triazolo[1,5-a]pyridine] | 30 nM
COc1cc(/C=C/c2nc3n(n2)CCCC3c2cccs2)ccc1-n1cnc(C)c1 (single isomer, unassigned; (-)) [Example 10, (−)-2-{(E)-2-[3-methoxy-4-(4-methyl-1H-imidazol-1-yl)phenyl]vinyl}-8-thiophen-2-yl-5,6,7,8-tetrahydro[1,2,4]triazolo[1,5-a]pyridine] | 33 nM
COc1cc(/C=C/c2nc3n(n2)CCCC3c2ccc(Br)cc2)ccc1-n1cnc(C)c1 (single isomer, unassigned; (-)) [Example 20, (−)-8-(4-bromophenyl)-2-{(E)-2-[3-methoxy-4-(4-methyl-1H-imidazol-1-yl)phenyl]vinyl}-5,6,7,8-tetrahydro-[1,2,4]triazolo[1,5-a]pyridine] | 30 nM
COCc1ccccc1C1CCCn2nc(/C=C/c3ccc(-n4cnc(C)c4)c(OC)c3)nc21 (single isomer, unassigned; (-)) [Example 22, (−)-2-{(E)-2-[3-methoxy-4-(4-methyl-1H-imidazol-1-yl)phenyl]vinyl}-8-(2-methoxymethylphenyl)-5,6,7,8-tetrahydro-[1,2,4]triazolo[1,5-a]pyridine] | 25 nM
COCc1cc(F)ccc1C1CCCn2nc(/C=C/c3ccc(-n4cnc(C)c4)c(OC)c3)nc21 (single isomer, unassigned; (-)) [Example 24, (−)-8-(4-fluoro-2-methoxymethylphenyl)-2-{(E)-2-[3-methoxy-4-(4-methyl-1H-imidazol-1-yl)phenyl]vinyl}-5,6,7,8-tetrahydro-[1,2,4]triazolo[1,5-a]pyridine] | 12 nM
